Reference: patent publication US7652142B2, “Bipiperidinyl derivatives useful as inhibitors of chemokine receptors” (priority 2003, dated 2010)

test system: HIV-1; assay: Luciferase Replication assay; format: cell-based; conditions: Human immunodeficiency virus 1, U87/CD4/CCR5, 72 h
Description: Luciferase Replication Assay:
Plasmids encoding the full length genome of HIV-1 pNL-4-Luc with the gp 120 V-3 loop replaced by the Bgl II fragment of HIV-1 ADA, YU-2 or HxB (ADA-Luc-FL, YU-2-Luc-FL and HxB-Luc-FL) were obtained from Dr. Susan Pontow (Washington University, St. Louis Mo.). Replication-competent luciferase reporter virus stocks were generated by transfection of plasmids into 293T cells using Superfect (Qiagen) or Mirus transfection reagents. Viral stocks were collected 48 hours following transfection and titered for luciferase production on U-87-CCR5 or CXCR4 cells. U87-CD4-CCR5 cells ([…]) were plated in 96-well cell culture plates and incubated overnight. Media was removed and replaced with 50 μl of fresh culture media (DMEM, 10% FCS) and 50 μl of compound diluted in culture medium. Cells were incubated with compound at 37° C. for 1 hour. The resultant supernatant was removed and replaced with 20 μl of media containing compound and infected with an equal volume of diluted or undiluted virus stock at 37° C. for 3-4 hours. The cells were washed once with DMEM, and 200 μl of media containing compound was added. The cultures were incubated for 3 days, the cells lysed in luciferase lysis buffer (Promega, Madison, Wis.) and transferred to Immulon plates (Dynex Technologies, Chantilly Va.). An equal volume of luciferase substrate (Promega, Madison Wis.) was added to lysates and the plates read immediately in a Wallac Luminometer. Fifty and ninety percent inhibitory concentrations were determined using GraphPad PRISM software.

| Structure (SMILES) | IC50 [nM] |
| --- | --- |
| Cc1ncnc(C)c1C(=O)N1CCC(C)(N2CCC(N(Cc3ccccc3)c3ccc(S(=O)(=O)CCO)cc3)CC2)CC1 | 0.17 |
| Cc1ncnc(C)c1C(=O)N1CCC(C)(N2CCC(N(Cc3ccccc3)c3ccc(CC#N)cc3)CC2)CC1 | 0.14 |
| Cc1ncnc(C)c1C(=O)N1CCC(C)(N2CCC(N(Cc3ccccc3)c3ccc(CNC(=O)[C@H](O)c4ccccc4)cc3)CC2)CC1 | 0.19 |
| Cc1ncnc(C)c1C(=O)N1CCC(C)(N2CCC(N(Cc3ccccc3)c3ccn(C)c(=O)c3)CC2)CC1 | 0.15 |
| Cc1cc(NS(C)(=O)=O)cc(C)c1C(=O)N1CCC(C)(N2CCC(N(Cc3ccccc3)c3ccc(C(C)(C)C(=O)N4CCOCC4)cc3)CC2)CC1 | 0.16 |
| Cc1cc(N)cc(C)c1C(=O)N1CCC(C)(N2CCC(N(Cc3ccccc3)c3ccc(C(C)(C)C(=O)N4CCOCC4)cc3)CC2)CC1 | 0.13 |
| Cc1ncnc(C)c1C(=O)N1CCC(C)(N2CCC(N(Cc3ccccc3)c3ccc(C(C)(C)C(=O)N4CCCCC4)cc3)CC2)CC1 | 0.18 |
| Cc1ncnc(C)c1C(=O)N1CCC(C)(N2CCC(N(Cc3ccccc3)c3ccc(CC(=O)N4CCCC4)cc3)CC2)CC1 | 0.13 |
| CCNC(=O)Nc1cc(C)c(C(=O)N2CCC(C)(N3CCC(N(Cc4ccccc4)c4ccc(CC(=O)N5CCOCC5)cc4)CC3)CC2)c(C)c1 | 0.19 |
| Cc1ncnc(C)c1C(=O)N1CCC(C)(N2CCC(N(Cc3ccccc3)c3ccc(CN4CC[C@H](NS(=O)(=O)C5CC5)C4=O)cc3)CC2)CC1 | 0.14 |
| Cc1ncnc(C)c1C(=O)N1CCC(C)(N2CCC(N(Cc3ccccc3)c3ccc(C(C)(C)C(=O)N4CCOCC4)cc3)CC2)CC1 | 0.14 |
| Cc1cc(O)cc(C)c1C(=O)N1CCC(C)(N2CCC(N(Cc3ccccc3)c3ccc(C(C)(C)C(=O)N4CCOCC4)cc3)CC2)CC1 | < 0.1 |
| CCN(CC)C(=O)[C@@H](O)c1ccc(N(Cc2ccccc2)C2CCN(C3(C)CCN(C(=O)c4c(C)ncnc4C)CC3)CC2)cc1 | 0.16 |
